Entries after “also recorded” stand apart in the source; their conditions may differ.
Columns and labels:
Format in all cases: cell-based, human
p53 = p53 expression, Western blot / MICE assay; settings: PNET2 cells induced to express AD7c-NTP, growth factor stimulated
Description: (§1) Standard Western blot assays wew used to measure cellular levels of p53, Bcl-2, p21/Waf1, phospho-tau, tau, c-fos, NTP, and activated (phosphorylated) forms of Erk mitogen activated protein (MAP) kinase, amino-terminal c-jun-activated kinase (pJNK), and p38/HOG1. Immunoprecipitation followed by Western blot analysis was used to measure p85 subunit associated with IRS1. For Western blot analysis of p53 Bcl-2, phospho-tau, tau, c-fos, and NTP, the cells were lysed in ice cold radioimmunoprecipitation assay (RIPA) buffer supplemented with protease and phosphatase inhibitors. For the immunoprecipitation studies, Western blot analysis of phospho-Erk, pJNK, and p38, and the PI3 kinase assays, the cells were harvested in Triton lysis buffer supplemented with protease and phosphatase inhibitors. Protein concentrations were measured using the BCA assay (Pierce, Rockford, Ill.). Samples containing 60 μg of protein were fractionated by sodium dodecyl sulfate polyacrylamide gel electrophoresis (SDS-PAGE), then transferred to PVDF membranes, and analyzed by Western immunoblotting. Immunoreactivity was detected with horseradish peroxidase conjugated secondary IgG and PicoWest enhanced chemiluminescence reagents (Pierce Chemical Company, Rockford, Ill.). CAT activity was measured using known methods.
The MICE assay is known in the art (e.g., as described by de la Monte et al., 1999, Biotechniques 26:107301076). The assay is a rapid and sensitive method for quantifying immunoreactivity in 96-well micro-cultures and combines the advantages of the enzyme-linked immunosorbant assay with immunocytochemical staining to permit sensitive in situ quantification of protein expression with values normalized to cell density. […] Immunoreactivity was detected using horseradish peroxidase conjugated secondary antibody (Pierce, Rockford, Ill.) and the TMB soluble peroxidase substrate (Pierce, Rockford, Ill.). Absorbances were measured at 450 nm using a Spectracount plate reader. […]

[1] = system: PY-PI3 kinase (total PI3 kinase); assay: PI3 kinase activity in anti-phospho-tyrosine (PY) immunoprecipitates; settings: 24 or 48 hours of stimulation
Experimental: The cells were harvested in Triton lysis buffer supplemented with protease and phosphatase inhibitors. Total PI3K was immunoprecipitated from 500 μg protein in cell lysates using rabbit polyclonal antibodies to the p85 subunit of PI3K and Protein A sepharose. The immunoprecipitants were incubated for 5 minutes at room temperature with 10 μg of sonicated phosphatidylinositol in HEPES buffer (200 mM HEPES, 4 mM EGTA, 4 mM sodium phosphate, pH 7.0). Reactions were initiated by the addition of 5 μCi [α^32p] ATP, 15 mM MgCl2, 150 mM ATP, 1.5 mM Tris-HCl, pH 7.4, and 15 mM NaCl. After 10 minutes incubation at 30° C., the reactions were stopped by the addition of HCl to a final concentration of 1.2 N, followed by chloroform/methanol extraction. Phosphorylated lipids were analyzed by thin layer chromatography using gel plates pre-coated with 1% oxalate (Merck, White House Station, N.J.). PI3K activity was measured with a phosphorimager.
PI3 kinase is an important mediator of neuronal survival. The pro-survival effects of PI3K are mediated through activation of Akt (protein kinase B) and phosphorylation of Bad to render it inactivated. Inhibition of PI3 kinase activity is associated with PNET2 cell apoptosis. Therefore, experiments were carried out to determine if growth factor stimulated PI3 kinase activity was inhibited in insulin or IGF-1-stimulated cultures. Such inhibition has been observed following chronic ethanol exposure. Since insulin and IGF-1 can activate PI3 kinase through the insulin-receptor substrate-1 (IRS-1) or through IRS-1-independent pathways, both IRS1-associated PI3 kinase and total PI3 kinase activities were measured. These studies were conducted using insulin or PDGF stimulated cultures in which AD7c-NTP gene expression was induced by 3 mM IPTG stimulation. […] Levels of PI3 kinase activity were measured in anti-phospho-tyrosine (PY) immunoprecipitates. […] Similarly, PI3 kinase activity was readily detected in the PY immunoprecipitates prepared with cells stimulated with insulin or PDGF.

phospho-JNK = assay: Growth factor stimulated phospho-JNK, Western blot; settings: 5-30 min stimulation
Description: as §1
The potential mechanisms by which the differential effects of insulin, IGF1 and PDGF might occur were explored by examining pathways, which mediate PNET2 neuronal apoptosis and neuritic sprouting. […] Western blot analysis was performed with cell lysates obtained from cultures stimulated with insulin, IGF1, or PDGF for 0-30 minutes or 24 hours with equivalent protein loading (60 μg/sample). The membranes were probed using antibodies to Erk, phospho-Erk, Jun, and phospho-JNK. […] In contrast, after 24 hours of AD7c-NTP gene induction and growth factor stimulation, high levels of phospho-Erk MAPK were detected in the IGF-1 and PDGF-stimulated cultures, but not in the serum-starved or insulin-stimulated cultures. […] In contrast, the levels of c-fos transcription factor were equally expressed after 24 hours IPTG induction of AD7c-NTP expression and either serum starvation or stimulation with insulin, IGF1 or PDGF.

insulin: Human insulin purchased from Novagen
p53 level (p53): high levels of p53; also recorded: significantly increased levels | PY-PI3 kinase activity, 24 or 48 hours [1]: similar | phospho-JNK level, short-term stimulation (phospho-JNK): sharply increased and sustained elevations
